Assay results published in US20100190747A1, “Fused ring compound and use thereof” (priority 2009, published 2010).

Columns and labels:
delta-5-desaturase = molecular target: T1, delta-5-desaturase (Rattus norvegicus, UniProt Q920R3); assay: Inhibitory activity on delta-5-desaturase (rat liver microsomal fraction, 14C-eicosatrienoic acid, TLC); type: biochemical; settings: test compound at 10 μM, room temperature, 120 minutes
T1 construct: the microsomal fraction of a rat river (10 μl), which had been diluted to 3 mg/ml; from tissue; host or cells: rat liver microsomal fraction
Method in brief: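 Rat liver microsomes (3 mg/ml before addition) incubated with test compound at 10 μM, NADH, ATP, CoA and 14C-eicosatrienoic acid in phosphate buffer pH 7.4 with BSA and glutathione, 120 min at room temperature. Lipids saponified, extracted, separated by reverse-phase TLC and imaged; % inhibition reported.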

[1] = system: atherogenic diet fed apoE-deficient mice; assay: Anti-atherosclerotic and anti-obesity effects in atherogenic diet fed apoE-deficient mice; type: in vivo; settings: 10 mg/kg/day p.o. for 15 weeks, male apoE-deficient mice on high fat diet, vehicle group taken as 100%; for Reduction in atherosclerotic lesion area (%): aorta, oil red O staining
Experimental: Assessments of anti-atherosclerotic effects and anti-obesity effects on atherogenic diet fed apoE-deficient mice were performed by the method described below.
Male apoE-deficient mice of 11-13 week-age (Jacson Lab) conditioned with ordinary diet (Research Diet) in separate cages were allowed to take high fat diet (Research Diet) at libitum for 14 weeks to thereby form atherosclerotic lesions in the aorta. The test compound suspended in 0.5% methyl cellulose solution was forcedly and orally administered to the mice at 10 ml/kg everyday for 15 weeks from 1 week prior to the start of the high fat diet feeding. Body weights were measured on the day of autopsy. The body weight reduction ratio of test compound-administered group was calculated taking the body weight of vehicle-administered group as 100%, to thereby obtain an index for anti-obesity effects. The aorta (from immediately above the aortic valve to the ventral branch of common iliac artery) removed under anesthesia was totally incised after removal of adipose tissue, etc. adhering to the outer membrane of the aorta, to thereby prepare an incised aorta specimen. After formalin fixing, the incised aorta specimen was subjected to staining with oil red O. The thus stained incised aorta specimen was photographed with a digital camera. Subsequently, image analysis using Image Pro program (Planetron, Inc.) was performed to determine the area of atherosclerotic lesions stained red and the total area of the incised specimen (the area of vascular inner wall). The ratio of atherosclerotic lesions (%) was calculated by dividing the area of atherosclerotic lesions by the area of vascular inner wall. The reduction ratio of the atherosclerotic lesion area (%) in test compound-administered group was calculated taking the area of atherosclerotic lesions in vehicle-administered group as 100%, to thereby obtain an index for anti-atherosclerotic effects. All the measurement of the ratio of atherosclerotic lesions was performed in a blind fashion.

T1 sequence (Q920R3 whole entry): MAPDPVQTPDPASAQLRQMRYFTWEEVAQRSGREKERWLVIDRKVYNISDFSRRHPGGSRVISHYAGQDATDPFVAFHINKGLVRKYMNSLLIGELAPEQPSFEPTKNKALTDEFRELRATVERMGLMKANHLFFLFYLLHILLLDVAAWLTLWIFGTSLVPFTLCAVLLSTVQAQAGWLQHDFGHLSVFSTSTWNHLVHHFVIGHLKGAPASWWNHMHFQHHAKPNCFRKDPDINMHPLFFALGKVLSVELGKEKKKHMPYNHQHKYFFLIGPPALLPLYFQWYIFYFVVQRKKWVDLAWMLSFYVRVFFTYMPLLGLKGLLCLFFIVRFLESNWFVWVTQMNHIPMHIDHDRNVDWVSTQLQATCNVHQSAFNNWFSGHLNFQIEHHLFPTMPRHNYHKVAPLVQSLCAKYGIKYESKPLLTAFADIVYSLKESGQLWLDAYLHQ

Row | Compound | inhibition at 10 µM (delta-5-desaturase) [%] | Reduction in atherosclerotic lesion area (%) [1] [%] | Reduction in body weight (%) [1] [%]
1 | O=C1Cc2c(nc(SCC3CC3)n(-c3ccc(OCC(F)(F)F)cc3)c2=O)N1 [Example 297, 2-[(Cyclopropylmethyl)sulfanyl]-3-[4-(2,2,2-trifluoroethoxy)phenyl]-5,7-dihydro-3H-pyrrolo[2,3-d]pyrimidine-4,6-dione] | 101 | 26 | 8
2 | CCOCCCSc1nc2c(c(=O)n1-c1ccc(OCC(F)(F)F)cc1)CC(=O)N2 [Example 302, 2-[(3-Ethoxypropyl)sulfanyl]-3-[4-(2,2,2-trifluoroethoxy)phenyl]-5,7-dihydro-3H-pyrrolo[2,3-d]pyrimidine-4,6-dione] | 94 |  | 
3 | O=C1Cc2c(nc(OCC(F)(F)F)n(-c3ccc(OCC(F)(F)C(F)(F)F)cc3)c2=O)N1 [Example 306, 3-[4-(2,2,3,3,3-Pentafluoropropoxy)phenyl]-2-(2,2,2-trifluoroethoxy)-5,7-dihydro-3H-pyrrolo[2,3-d]pyrimidine-4,6-dione] | 99 |  | 
4 | CCSc1nc2c(c(=O)n1-c1ccc(OCC(F)(F)F)c(F)c1)CC(=O)N2 [Example 307, 2-(Ethylsulfanyl)-3-[3-fluoro-4-(2,2,2-trifluoroethoxy)phenyl]-5,7-dihydro-3H-pyrrolo[2,3-d]pyrimidine-4,6-dione] | 99 |  | 
5 | O=C1Cc2c(nc(Oc3ccc(F)cc3)n(-c3ccc(OCC(F)(F)C(F)(F)F)cc3)c2=O)N1 [Example 311, 2-(4-Fluorophenoxy)-3-[4-(2,2,3,3,3-pentafluoropropoxy)phenyl]-5,7-dihydro-3H-pyrrolo[2,3-d]pyrimidine-4,6-dione] | 98 |  | 
6 | CC(C)(O)CSc1nc2c(c(=O)n1-c1ccc(OCC(F)(F)F)cc1)CC(=O)N2 [Example 315, 2-[(2-Hydroxy-2-methylpropyl)sulfanyl]-3-[4-(2,2,2-trifluoroethoxy)phenyl]-5,7-dihydro-3H-pyrrolo[2,3-d]pyrimidine-4,6-dione] | 99 |  | 
7 | CC(C)Oc1nc2[nH]ccc2c(=O)n1-c1ccc(OCC(F)(F)F)c(F)c1 [Example 316, 3-[3-Fluoro-4-(2,2,2-trifluoroethoxy)phenyl]-2-(1-methylethoxy)-3,7-dihydro-4H-pyrrolo[2,3-d]pyrimidin-4-one] | 103 |  | 
8 | CC(C)COc1nc2c(c(=O)n1-c1ccc(OCC(F)(F)F)cc1)CC(=O)N2 [Example 318, 2-(2-Methylpropoxy)-3-[4-(2,2,2-trifluoroethoxy)phenyl]-5,7-dihydro-3H-pyrrolo[2,3-d]pyrimidine-4,6-dione] | 103 |  | 
9 | O=C1Cc2c(nc(OCCC3CC3)n(-c3ccc(OCC(F)(F)F)cc3)c2=O)N1 [Example 319, 2-(2-Cyclopropylethoxy)-3-[4-(2,2,2-trifluoroethoxy)phenyl]-5,7-dihydro-3H-pyrrolo[2,3-d]pyrimidine-4,6-dione] | 104 |  | 
10 | O=C1Cc2c(nc(SCC3CC3)n(-c3ccc(OCC(F)(F)F)c(F)c3)c2=O)N1 [Example 322, 2-[(Cyclopropylmethyl)sulfanyl]-3-[3-fluoro-4-(2,2,2-trifluoroethoxy)phenyl]-5,7-dihydro-3H-pyrrolo[2,3-d]pyrimidine-4,6-dione] | 101 |  | 
11 | O=C1Cc2c(nc(SCC3CC3)n(-c3ccc(OCC(F)(F)C(F)(F)F)cc3)c2=O)N1 [Example 323, 2-[(Cyclopropylmethyl)sulfanyl]-3-[4-(2,2,3,3,3-pentafluoropropoxy)phenyl]-5,7-dihydro-3H-pyrrolo[2,3-d]pyrimidine-4,6-dione] | 102 |  | 
12 | COCCSc1nc2c(c(=O)n1-c1ccc(OCC(F)(F)F)cc1)CC(=O)N2 [Example 325, 2-[(2-Methoxyethyl)sulfanyl]-3-[4-(2,2,2-trifluoroethoxy)phenyl]-5,7-dihydro-3H-pyrrolo[2,3-d]pyrimidine-4,6-dione] | 105 |  | 
13 | N#CCCNC(=O)CSc1nc2c(c(=O)n1-c1ccc(OCC(F)(F)F)cc1)CC(=O)N2 [Example 328, N-(2-cyanoethyl)-2-({4,6-dioxo-3-[4-(2,2,2-trifluoroethoxy)phenyl]-4,5,6,7-tetrahydro-3H-pyrrolo[2,3-d]pyrimidin-2-yl}sulfanyl)acetamide] | 97 |  | 
14 | O=C1Cc2c(nc(Sc3ccc(F)cc3)n(-c3ccc(OCC(F)(F)F)cc3)c2=O)N1 [Example 336, 2-[(4-Fluorophenyl)sulfanyl]-3-[4-(2,2,2-trifluoroethoxy)phenyl]-5,7-dihydro-3H-pyrrolo[2,3-d]pyrimidine-4,6-dione] | 101 |  | 
15 | O=C1Cc2c(nc(OC(CF)CF)n(-c3ccc(OCC(F)(F)F)cc3)c2=O)N1 [Example 338, 2-[2-Fluoro-1-(fluoromethyl)ethoxy]-3-[4-(2,2,2-trifluoroethoxy)phenyl]-5,7-dihydro-3H-pyrrolo[2,3-d]pyrimidine-4,6-dione] | 100 |  | 
16 | N#CC1(CSc2nc3c(c(=O)n2-c2ccc(OCC(F)(F)F)cc2)CC(=O)N3)CC1 [Example 339, 1-[({4,6-Dioxo-3-[4-(2,2,2-trifluoroethoxy)phenyl]-4,5,6,7-tetrahydro-3H-pyrrolo[2,3-d]pyrimidin-2-yl}sulfanyl)methyl]cyclopropanecarbonitrile] | 100 |  | 
17 | O=C1Cc2c(nc(SCC(F)(F)F)n(-c3ccc(OCC(F)(F)C(F)(F)F)cc3)c2=O)N1 [Example 347, 3-[4-(2,2,3,3,3-Pentafluoropropoxy)phenyl]-2-[(2,2,2-trifluoroethyl)sulfanyl]-5,7-dihydro-3H-pyrrolo[2,3-d]pyrimidine-4,6-dione] | 100 |  | 

Second part, led by results:

Row | inhibition at 10 µM (delta-5-desaturase) [%] | Compound | Reduction in atherosclerotic lesion area (%) [1] [%] | Reduction in body weight (%) [1] [%]
18 | 100 | O=C1Cc2c(nc(OCC(F)(F)F)n(-c3ccc(OCC(F)(F)F)cc3)c2=O)N1 [Example 274, 2-(2,2,2-Trifluoroethoxy)-3-[4-(2,2,2-trifluoroethoxy)phenyl]-5,7-dihydro-3H-pyrrolo[2,3-d]pyrimidine-4,6-dione] | 26 | 8
19 | 98 | CSc1nc2c(c(=O)n1-c1ccc(OCC(F)(F)C(F)(F)F)cc1)CC(=O)N2 [Example 303, 2-(Methylsulfanyl)-3-[4-(2,2,3,3,3-pentafluoropropoxy)phenyl]-5,7-dihydro-3H-pyrrolo[2,3-d]pyrimidine-4,6-dione] |  | 
20 | 98 | O=C1Cc2c(nc(OCC(F)(F)F)n(-c3ccc(OCC(F)(F)F)c(F)c3)c2=O)N1 [Example 309, 3-[3-Fluoro-4-(2,2,2-trifluoroethoxy)phenyl]-2-(2,2,2-trifluoroethoxy)-5,7-dihydro-3H-pyrrolo[2,3-d]pyrimidine-4,6-dione] |  | 
21 | 99 | CC(C)Oc1nc2c(c(=O)n1-c1ccc(OCC(F)(F)C(F)(F)F)cc1)CC(=O)N2 [Example 310, 2-(1-Methylethoxy)-3-[4-(2,2,3,3,3-pentafluoropropoxy)phenyl]-5,7-dihydro-3H-pyrrolo[2,3-d]pyrimidine-4,6-dione] |  | 
22 | 97 | N#CCSc1nc2c(c(=O)n1-c1ccc(OCC(F)(F)F)cc1)CC(=O)N2 [Example 312, ({4,6-Dioxo-3-[4-(2,2,2-trifluoroethoxy)phenyl]-4,5,6,7-tetrahydro-3H-pyrrolo[2,3-d]pyrimidin-2-yl}sulfanyl)acetonitrile] |  | 
23 | 102 | CC(C)CSc1nc2c(c(=O)n1-c1ccc(OCC(F)(F)F)cc1)CC(=O)N2 [Example 313, 2-[(2-Methylpropyl)sulfanyl]-3-[4-(2,2,2-trifluoroethoxy)phenyl]-5,7-dihydro-3H-pyrrolo[2,3-d]pyrimidine-4,6-dione] |  | 
24 | 101 | CC(C)Sc1nc2c(c(=O)n1-c1ccc(OCC(F)(F)C(F)(F)F)cc1)CC(=O)N2 [Example 324, 2-[(1-Methylethyl)sulfanyl]-3-[4-(2,2,3,3,3-pentafluoropropoxy)phenyl]-5,7-dihydro-3H-pyrrolo[2,3-d]pyrimidine-4,6-dione] |  | 
25 | 101 | O=C1Cc2c(nc(SCCC3CC3)n(-c3ccc(OCC(F)(F)F)cc3)c2=O)N1 [Example 329, 2-[(2-Cyclopropylethyl)sulfanyl]-3-[4-(2,2,2-trifluoroethoxy)phenyl]-5,7-dihydro-3H-pyrrolo[2,3-d]pyrimidine-4,6-dione] |  | 
26 | 101 | CCC(CC)Sc1nc2c(c(=O)n1-c1ccc(OCC(F)(F)F)cc1)CC(=O)N2 [Example 340, 2-[(1-Ethylpropyl)sulfanyl]-3-[4-(2,2,2-trifluoroethoxy)phenyl]-5,7-dihydro-3H-pyrrolo[2,3-d]pyrimidine-4,6-dione] |  | 
27 | 99 | O=C1Cc2c(nc(OCCC(F)(F)F)n(-c3ccc(OCC(F)(F)F)cc3)c2=O)N1 [Example 341, 3-[4-(2,2,2-Trifluoroethoxy)phenyl]-2-(3,3,3-trifluoropropoxy)-5,7-dihydro-3H-pyrrolo[2,3-d]pyrimidine-4,6-dione] |  | 
